Experimental data from ChEMBL document CHEMBL1122717, “Oxidation of sparteines by cytochrome P-450: evidence against the formation of N-oxides” (J Med Chem, 1984).

Species: Rattus norvegicus
Experiment: Compound was evaluated for percent inhibition of antiarrhythmic activity catalyzed by cytochrome P-450 UT-H in liver microsomes of rats
Format: functional
Conditions: dose or concentration not given here

## C1CCN2C[C@@H]3C[C@@H](CN4CCCC[C@@H]34)[C@H]2C1
  inhibition: > 95%
